Drawing on ChEMBL document CHEMBL1909046, “DrugMatrix in vitro pharmacology data”, this text covers IC50 and Ki for 17 molecules.

The target of one data set is T1, Thromboxane-A synthase (Homo sapiens, UniProt P24557).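 Note: enzyme inhibition assay with PGH2 supplied as substrate; in other assays of this panel Not Active means under 50% inhibition at 10 µM.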
T1 sequence (P24557 whole entry): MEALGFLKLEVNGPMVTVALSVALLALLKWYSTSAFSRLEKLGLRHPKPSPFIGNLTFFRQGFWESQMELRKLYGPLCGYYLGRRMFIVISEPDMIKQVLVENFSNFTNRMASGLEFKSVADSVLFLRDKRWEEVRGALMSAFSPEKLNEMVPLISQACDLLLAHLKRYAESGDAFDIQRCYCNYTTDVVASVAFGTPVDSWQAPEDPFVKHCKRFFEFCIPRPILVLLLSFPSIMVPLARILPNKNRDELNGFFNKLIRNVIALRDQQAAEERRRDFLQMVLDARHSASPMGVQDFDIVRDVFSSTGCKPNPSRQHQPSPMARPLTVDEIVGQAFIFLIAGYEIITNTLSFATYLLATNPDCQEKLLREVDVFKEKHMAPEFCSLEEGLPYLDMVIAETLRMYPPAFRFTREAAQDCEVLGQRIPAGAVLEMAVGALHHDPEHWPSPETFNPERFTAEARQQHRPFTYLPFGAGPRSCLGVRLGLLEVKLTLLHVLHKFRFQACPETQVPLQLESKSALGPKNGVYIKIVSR
Put plainly: biochemical. It is filed as tissue-based, Platelet. As to conditions: platelet.

In data set [1] the target is T2, Vasoactive intestinal polypeptide receptor 1 (Homo sapiens, UniProt P32241). Note: in other assays of this panel Not Active means under 50% inhibition at 10 µM.
T2 sequence (P32241 whole entry): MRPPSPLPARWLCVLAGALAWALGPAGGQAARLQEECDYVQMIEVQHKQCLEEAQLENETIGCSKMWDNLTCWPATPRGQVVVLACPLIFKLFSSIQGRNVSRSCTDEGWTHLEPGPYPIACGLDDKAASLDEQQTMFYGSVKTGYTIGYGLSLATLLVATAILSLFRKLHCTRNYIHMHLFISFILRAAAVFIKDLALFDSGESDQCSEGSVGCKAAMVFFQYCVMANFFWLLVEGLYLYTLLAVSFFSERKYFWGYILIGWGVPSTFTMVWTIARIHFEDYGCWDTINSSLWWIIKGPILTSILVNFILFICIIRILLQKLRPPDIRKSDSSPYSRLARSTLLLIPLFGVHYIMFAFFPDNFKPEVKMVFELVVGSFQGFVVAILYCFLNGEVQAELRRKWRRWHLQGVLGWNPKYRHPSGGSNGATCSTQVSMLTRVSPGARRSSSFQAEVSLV
Format: cell membranes, Membrane. As to conditions: ht-29.

The target of data set [2] is T3, Alpha-1D adrenergic receptor (Homo sapiens, UniProt P25100). Note: in other assays of this panel Not Active means under 50% inhibition at 10 µM.
T3 sequence (P25100 whole entry): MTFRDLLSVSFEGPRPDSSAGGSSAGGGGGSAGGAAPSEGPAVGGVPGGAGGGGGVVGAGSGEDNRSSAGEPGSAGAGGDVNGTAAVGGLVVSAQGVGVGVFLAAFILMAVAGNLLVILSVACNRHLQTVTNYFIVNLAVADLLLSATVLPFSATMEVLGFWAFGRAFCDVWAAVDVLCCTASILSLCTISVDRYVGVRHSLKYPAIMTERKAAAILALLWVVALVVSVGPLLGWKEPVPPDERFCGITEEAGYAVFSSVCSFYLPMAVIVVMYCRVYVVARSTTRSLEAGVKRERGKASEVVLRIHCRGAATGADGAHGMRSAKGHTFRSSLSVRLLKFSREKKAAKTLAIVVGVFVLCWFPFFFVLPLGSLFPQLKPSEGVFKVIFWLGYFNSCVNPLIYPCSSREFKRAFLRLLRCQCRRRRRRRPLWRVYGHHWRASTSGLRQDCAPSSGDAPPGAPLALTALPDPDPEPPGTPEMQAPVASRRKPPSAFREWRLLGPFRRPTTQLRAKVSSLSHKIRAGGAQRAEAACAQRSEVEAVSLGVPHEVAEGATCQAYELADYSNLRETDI
It is filed as cell membranes, HEK293, Membrane. As to conditions: for Ki: read-out: Ki.

For another data set, the target named is Cytochrome P450 2C19 (Homo sapiens, UniProt P33261). As to conditions: bti-tn-5b1-4. Note: in other assays of this panel Not Active means under 50% inhibition at 10 µM.
Chain of Cytochrome P450 2C19 (P33261 whole entry): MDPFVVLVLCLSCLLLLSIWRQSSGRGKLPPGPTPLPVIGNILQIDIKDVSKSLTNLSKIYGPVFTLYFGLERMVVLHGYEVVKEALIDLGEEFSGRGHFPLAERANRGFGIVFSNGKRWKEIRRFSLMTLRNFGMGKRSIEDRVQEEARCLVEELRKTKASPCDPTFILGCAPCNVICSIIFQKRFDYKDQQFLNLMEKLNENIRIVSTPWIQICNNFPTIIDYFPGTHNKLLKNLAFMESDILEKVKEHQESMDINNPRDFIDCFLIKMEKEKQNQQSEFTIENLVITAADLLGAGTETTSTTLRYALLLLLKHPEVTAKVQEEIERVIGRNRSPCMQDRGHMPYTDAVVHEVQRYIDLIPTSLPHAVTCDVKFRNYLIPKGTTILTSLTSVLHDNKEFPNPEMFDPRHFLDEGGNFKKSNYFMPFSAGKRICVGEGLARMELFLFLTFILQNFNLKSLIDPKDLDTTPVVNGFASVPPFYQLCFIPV
Data set [3] is described as follows: DRUGMATRIX: Phosphodiesterase PDE4 enzyme inhibition (substrate: [3H]cAMP + cAMP). As to conditions: u-937; Not Active = under 50% inhibition at 10 µM.
Data set [4] deals with T4, Alpha-1B adrenergic receptor (Rattus norvegicus, UniProt P15823).
T4 sequence (P15823 whole entry): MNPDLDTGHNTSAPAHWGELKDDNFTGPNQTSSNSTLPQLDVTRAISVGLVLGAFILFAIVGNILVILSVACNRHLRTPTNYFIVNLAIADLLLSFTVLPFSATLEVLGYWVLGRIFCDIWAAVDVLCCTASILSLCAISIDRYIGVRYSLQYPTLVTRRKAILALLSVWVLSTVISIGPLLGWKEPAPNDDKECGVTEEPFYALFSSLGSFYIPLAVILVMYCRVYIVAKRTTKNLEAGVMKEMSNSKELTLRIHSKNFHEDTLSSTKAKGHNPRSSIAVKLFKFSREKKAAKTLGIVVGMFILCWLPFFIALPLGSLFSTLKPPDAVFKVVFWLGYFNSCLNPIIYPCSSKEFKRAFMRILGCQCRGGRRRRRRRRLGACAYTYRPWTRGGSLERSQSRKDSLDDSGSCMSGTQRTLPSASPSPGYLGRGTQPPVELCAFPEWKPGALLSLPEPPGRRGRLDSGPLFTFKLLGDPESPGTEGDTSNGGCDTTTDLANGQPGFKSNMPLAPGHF
Put plainly: DRUGMATRIX: Alpha-1B adrenergic receptor radioligand binding (ligand: prazosin). As to conditions: Not Active = under 50% inhibition at 10 µM. It is filed as cell membranes, Wistar, Liver, Membrane.

For data set [5], the target named is T5, C-X-C chemokine receptor type 2 (Homo sapiens, UniProt P25025). Note: in other assays of this panel Not Active means under 50% inhibition at 10 µM.
T5 sequence (P25025 whole entry): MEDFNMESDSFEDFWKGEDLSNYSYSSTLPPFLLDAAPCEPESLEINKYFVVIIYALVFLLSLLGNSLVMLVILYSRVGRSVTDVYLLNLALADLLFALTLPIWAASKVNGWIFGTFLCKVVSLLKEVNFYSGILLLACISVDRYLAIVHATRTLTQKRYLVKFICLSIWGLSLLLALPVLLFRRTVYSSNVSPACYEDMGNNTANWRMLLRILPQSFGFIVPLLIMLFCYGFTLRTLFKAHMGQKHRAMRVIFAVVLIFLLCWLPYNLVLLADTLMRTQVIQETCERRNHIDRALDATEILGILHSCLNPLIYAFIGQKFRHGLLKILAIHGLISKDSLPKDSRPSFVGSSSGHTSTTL
It is filed as cell membranes, Membrane. As to conditions: cho-k1.

Broadly, the IC50 is the concentration that inhibits the measured activity by half. As usually defined, the Ki is a measure of affinity in units of concentration, obtained from inhibition or displacement. As to `COc1cc(N)nc2[nH]c(-c3ccc(F)cc3)c(-c3ccncc3)c12`, the IC50 result (against Thromboxane-A synthase; in data set [1]; in data set [2] (hek293); against Cytochrome P450 2C19; in data set [3]; in data set [4]) was “Not Active” throughout. Further, in data set [5], the half-inhibitory concentration (IC50) entry is “Not Active”. The Ki entry (at Cytochrome P450 2C19; in data set [3]) was “Not Active” in each case.

On to `COc1ccc(/C=C/C(=O)Nc2ccccc2C(=O)O)cc1OC`, for which the IC50 result (on Thromboxane-A synthase; in data set [1]; in data set [2] (hek293); against Cytochrome P450 2C19; in data set [3]; in data set [4]) was “Not Active” each time. In data set [5], the IC50 result is listed as “Not Active”. In addition, the inhibition constant Ki entry (on Cytochrome P450 2C19; in data set [3]) was “Not Active” each time.

As for `CCOC(N)=O`, the half-maximal inhibitory concentration (IC50) result (against Thromboxane-A synthase; in data set [1]; in data set [2] (hek293); against Cytochrome P450 2C19; in data set [3]; in data set [4]) was “Not Active” each time. In data set [5], the IC50 result was “Not Active”. In addition, the inhibition constant (Ki) result (at Cytochrome P450 2C19; in data set [3]) was “Not Active” throughout.

Turning to `CC(=O)Nc1nnc(S(N)(=O)=O)s1` [ACETAZOLAMIDE], the IC50 result (on Thromboxane-A synthase; in data set [1]; in data set [2] (hek293); at Cytochrome P450 2C19; in data set [5]) was “Not Active” each time. For the same molecule, the Ki entry on Cytochrome P450 2C19 is on record as “Not Active”.

As for `O=c1[nH]c2ccccc2n1CCCN1CCC(n2c(=O)[nH]c3cc(Cl)ccc32)CC1` [DOMPERIDONE], the IC50 result against Thromboxane-A synthase is “Not Active”; in data set [1], “Not Active”; in data set [2] (read-out: IC50), 1060 nM; in data set [5], “Not Active”. Also, in data set [2], the Ki amounted to 524 nM.

Take `CC(C)OC(=O)C(C)(C)Oc1ccc(C(=O)c2ccc(Cl)cc2)cc1` [FENOFIBRATE]: the 50% inhibitory concentration (IC50) entry (on Thromboxane-A synthase; in data set [1]; in data set [2] (hek293); against Cytochrome P450 2C19; in data set [5]) was “Not Active” in each case. Also, the Ki entry on Cytochrome P450 2C19 is listed as “Not Active”.

As for `OCCN1CCN(CCCN2c3ccccc3Sc3ccc(C(F)(F)F)cc32)CC1` [FLUPHENAZINE], the concentration for half-maximal inhibition (IC50) result on Thromboxane-A synthase was “Not Active”; in data set [1], “Not Active”; in data set [2] (read-out: IC50), 33 nM; in data set [5], “Not Active”. Besides, the Ki in data set [2] was 16 nM.

Turning to `CN1C2CCCC1CC(NC(=O)c1nn(C)c3ccccc13)C2` (centres undefined) [GRANISETRON], the 50% inhibitory concentration (IC50) entry (against Thromboxane-A synthase; in data set [1]; in data set [2] (hek293); at Cytochrome P450 2C19; in data set [5]) was “Not Active” in each case. Further, on Cytochrome P450 2C19, the Ki entry is reported as “Not Active”.

As for `CC[C@@H](CO)NC(=O)[C@@H]1C=C2c3cccc4c3c(cn4C)C[C@H]2N(C)C1` [METHYSERGIDE], the IC50 entry (against Thromboxane-A synthase; in data set [1]; in data set [2] (hek293); against Cytochrome P450 2C19; in data set [5]) was “Not Active” in each case. The Ki entry on Cytochrome P450 2C19 is given as “Not Active”.

On to `CCN(CC)CC#CCOC(=O)C(O)(c1ccccc1)C1CCCCC1` (centres undefined) [OXYBUTYNIN], for which the half-maximal inhibitory concentration (IC50) result (on Thromboxane-A synthase; in data set [1]; in data set [2] (hek293); in data set [5]) was “Not Active” throughout.

With `C=C(C)[C@H]1Cc2c(ccc3c2O[C@@H]2COc4cc(OC)c(OC)cc4[C@@H]2C3=O)O1` [ROTENONE], the half-inhibitory concentration (IC50) result (against Thromboxane-A synthase; in data set [1]; in data set [2] (hek293); in data set [3]; in data set [4]; in data set [5]) was “Not Active” each time. Further, the Ki entry in data set [3] is recorded as “Not Active”.

As for `C#CCN(C)[C@H](C)Cc1ccccc1` [SELEGILINE], the concentration for half-maximal inhibition (IC50) result (on Thromboxane-A synthase; in data set [1]; in data set [2] (hek293); in data set [3]; in data set [4]; in data set [5]) was “Not Active” throughout. Besides, the Ki result in data set [3] is listed as “Not Active”.

As to `CO[C@H]1C[C@@H]2CC[C@@H](C)[C@@](O)(O2)C(=O)C(=O)N2CCCC[C@H]2C(=O)O[C@H]([C@H](C)C[C@@H]2CC[C@@H](O)[C@H](OC)C2)CC(=O)[C@H](C)/C=C(\C)[C@@H](O)[C@@H](OC)C(=O)[C@H](C)C[C@H](C)/C=C/C=C/C=C/1C` [SIROLIMUS], the IC50 result (on Thromboxane-A synthase; in data set [1]; in data set [2] (hek293); in data set [3]; in data set [4]; in data set [5]) was “Not Active” throughout. Moreover, the Ki result in data set [3] is “Not Active”.

Turning to `CN[C@@H]1[C@H](O)[C@H](NC)[C@H]2O[C@@]3(O)C(=O)C[C@@H](C)O[C@H]3O[C@@H]2[C@H]1O` [SPECTINOMYCIN], the concentration for half-maximal inhibition (IC50) result (against Thromboxane-A synthase; in data set [1]; in data set [2] (hek293); in data set [3]; in data set [4]; in data set [5]) was “Not Active” in each case. In data set [3], the Ki result is recorded as “Not Active”.

`CCS(=O)(=O)CCn1c([N+](=O)[O-])cnc1C` [TINIDAZOLE]: the IC50 result (against Thromboxane-A synthase; in data set [1]; in data set [2] (hek293); in data set [3]; in data set [4]; in data set [5]) was “Not Active” in each case. The inhibition constant Ki entry in data set [3] was “Not Active”.

Regarding `O=c1n(CCCN2CCN(c3cccc(Cl)c3)CC2)nc2ccccn12` [TRAZODONE], the half-inhibitory concentration (IC50) entry against Thromboxane-A synthase is “Not Active”; in data set [1], “Not Active”; in data set [2] (read-out: IC50), 265 nM; on Cytochrome P450 2C19 it was “Not Active”; in data set [5] it was “Not Active”. Besides, the figures for the Ki (in data set [2]; on Cytochrome P450 2C19) were 130 nM and “Not Active”, respectively.

As to `COc1ccc(CN2CCNCC2)c(OC)c1OC` [TRIMETAZIDINE], the IC50 entry (against Thromboxane-A synthase; in data set [1]; in data set [2] (hek293); in data set [3]; in data set [4]; in data set [5]) was “Not Active” throughout. For the same molecule, the Ki result in data set [3] is reported as “Not Active”.
